Results published in PubChem BioAssay (NCI).
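Five concentrations, 48 hours, 96-well plates. Here, GI50 denotes the concentration required for 50% inhibition of growth. Definition used: TGI = concentration required for complete inhibition of growth.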

What was measured:
Assay in all cases: NCI-60 cell line screen, 48 h; in the data active = GI50 below about 0.43 µM; inactive = the rest
786-0 renal = tested on: 786-0 renal
A498 renal = tested on: A498 renal
A549 NSCLC = tested on: A549 NSCLC
ACHN renal = tested on: ACHN renal
BT-549 breast = tested on: BT-549 breast
CAKI-1 renal = tested on: CAKI-1 renal
CCRF-CEM leukemia = tested on: CCRF-CEM leukemia
COLO 205 colon = tested on: COLO 205 colon
DU-145 prostate = tested on: DU-145 prostate
EKVX NSCLC = tested on: EKVX NSCLC
HCT-116 colon = tested on: HCT-116 colon
HCT-15 colon = tested on: HCT-15 colon
HL-60(TB) leukemia = tested on: HL-60(TB) leukemia
HOP-62 NSCLC = tested on: HOP-62 NSCLC
HOP-92 NSCLC = tested on: HOP-92 NSCLC
HS 578T breast = tested on: HS 578T breast
HT29 colon = tested on: HT29 colon
IGROV1 ovarian = tested on: IGROV1 ovarian
KM12 colon = tested on: KM12 colon
LOX IMVI melanoma = tested on: LOX IMVI melanoma
M14 melanoma = tested on: M14 melanoma
MALME-3M melanoma = tested on: MALME-3M melanoma
MCF7 breast = tested on: MCF7 breast
MDA-MB-231 breast = tested on: MDA-MB-231 breast
MDA-MB-435 = tested on: MDA-MB-435
MOLT-4 leukemia = tested on: MOLT-4 leukemia
NCI-H226 lung = tested on: NCI-H226 lung
NCI-H23 lung = tested on: NCI-H23 lung
NCI-H460 lung = tested on: NCI-H460 lung
NCI-H522 lung = tested on: NCI-H522 lung
NCI/ADR-RES ovarian = tested on: NCI/ADR-RES ovarian
OVCAR-3 ovarian = tested on: OVCAR-3 ovarian
OVCAR-4 ovarian = tested on: OVCAR-4 ovarian
OVCAR-5 ovarian = tested on: OVCAR-5 ovarian
OVCAR-8 ovarian = tested on: OVCAR-8 ovarian
PC-3 prostate = tested on: PC-3 prostate
RPMI-8226 leukemia = tested on: RPMI-8226 leukemia
RXF 393 renal = tested on: RXF 393 renal
SF-268 CNS = tested on: SF-268 CNS
SF-295 CNS = tested on: SF-295 CNS
SF-539 CNS = tested on: SF-539 CNS
SK-MEL-2 melanoma = tested on: SK-MEL-2 melanoma
SK-MEL-28 melanoma = tested on: SK-MEL-28 melanoma
SK-MEL-5 melanoma = tested on: SK-MEL-5 melanoma
SK-OV-3 ovarian = tested on: SK-OV-3 ovarian
SN12C renal = tested on: SN12C renal
SNB-19 CNS = tested on: SNB-19 CNS
SNB-75 CNS = tested on: SNB-75 CNS
SR leukemia = tested on: SR leukemia
SW-620 colon = tested on: SW-620 colon
T-47D breast = tested on: T-47D breast
TK-10 renal = tested on: TK-10 renal
U251 CNS = tested on: U251 CNS
UACC-257 melanoma = tested on: UACC-257 melanoma
UACC-62 melanoma = tested on: UACC-62 melanoma
UO-31 renal = tested on: UO-31 renal
HCC-2998 colon = tested on: HCC-2998 colon
K-562 leukemia = tested on: K-562 leukemia

CCN(CC)c1ccc(/C=C/C(=O)c2ccc(Nc3nc(Nc4ccccc4)nc(Nc4ccccc4)n3)cc2)cc1
21.8 µM: TGI (MCF7 breast)
69.5 µM: TGI (HS 578T breast)
17.6 µM: TGI (NCI-H460 lung)
47.2 µM: TGI (SF-268 CNS)
16.8 µM: TGI (RXF 393 renal)
> 100 µM: TGI (ACHN renal) | TGI (CCRF-CEM leukemia) | TGI (EKVX NSCLC) | TGI (HCT-116 colon) | TGI (HCT-15 colon) | TGI (HL-60(TB) leukemia) | TGI (HT29 colon) | TGI (IGROV1 ovarian) | TGI (LOX IMVI melanoma) | TGI (M14 melanoma) | TGI (MALME-3M melanoma) | TGI (MDA-MB-231 breast) | TGI (MDA-MB-435) | TGI (NCI-H226 lung) | TGI (NCI-H23 lung) | TGI (NCI-H522 lung) | TGI (NCI/ADR-RES ovarian) | TGI (OVCAR-4 ovarian) | TGI (OVCAR-5 ovarian) | TGI (OVCAR-8 ovarian) | TGI (RPMI-8226 leukemia) | TGI (SF-539 CNS) | TGI (SK-MEL-28 melanoma) | TGI (SK-OV-3 ovarian) | TGI (SN12C renal) | TGI (SNB-19 CNS) | TGI (SW-620 colon) | TGI (U251 CNS) | TGI (UACC-257 melanoma) | TGI (UACC-62 melanoma) | TGI (UO-31 renal)
85.2 µM: TGI (SK-MEL-2 melanoma)
41 µM: TGI (T-47D breast)
79.2 µM: TGI (DU-145 prostate)
44.9 µM: TGI (SK-MEL-5 melanoma)
3.86 µM: TGI (SR leukemia)
48 µM: TGI (A498 renal)
12 µM: TGI (MOLT-4 leukemia)
65.1 µM: TGI (KM12 colon)
20 µM: TGI (OVCAR-3 ovarian)
4.84 µM: TGI (HOP-92 NSCLC)
19.8 µM: TGI (TK-10 renal)
64.8 µM: TGI (SNB-75 CNS)
38 µM: TGI (CAKI-1 renal)
inactive: GI50 (786-0 renal) 5.21 µM | GI50 (A498 renal) 7.44 µM | GI50 (A549 NSCLC) 12.8 µM | GI50 (ACHN renal) 6.1 µM | GI50 (BT-549 breast) 3.98 µM | GI50 (CAKI-1 renal) 5.17 µM | GI50 (CCRF-CEM leukemia) 3.15 µM | GI50 (COLO 205 colon) 1.17 µM | GI50 (DU-145 prostate) 5.04 µM | GI50 (EKVX NSCLC) 4.07 µM | GI50 (HCT-116 colon) 2.47 µM | GI50 (HCT-15 colon) 2.54 µM | GI50 (HL-60(TB) leukemia) 18 µM | GI50 (HOP-62 NSCLC) 2.55 µM | GI50 (HS 578T breast) 4.04 µM | GI50 (HT29 colon) 20.3 µM | GI50 (IGROV1 ovarian) 4.64 µM | GI50 (KM12 colon) 1.42 µM | GI50 (LOX IMVI melanoma) 6.87 µM | GI50 (M14 melanoma) 3.02 µM | GI50 (MALME-3M melanoma) 9.52 µM | GI50 (MCF7 breast) 1.99 µM | GI50 (MDA-MB-231 breast) 13.5 µM | GI50 (MDA-MB-435) 9.26 µM | GI50 (MOLT-4 leukemia) 2.08 µM | GI50 (NCI-H226 lung) 26.9 µM | GI50 (NCI-H23 lung) 11.1 µM | GI50 (NCI-H460 lung) 2.55 µM | GI50 (NCI-H522 lung) 5.94 µM | GI50 (NCI/ADR-RES ovarian) 4.3 µM | GI50 (OVCAR-3 ovarian) 2.12 µM | GI50 (OVCAR-4 ovarian) 32.3 µM | GI50 (OVCAR-5 ovarian) 17.5 µM | GI50 (OVCAR-8 ovarian) 9.95 µM | GI50 (PC-3 prostate) 3.2 µM | GI50 (RPMI-8226 leukemia) 3.26 µM | GI50 (RXF 393 renal) 2.97 µM | GI50 (SF-268 CNS) 8.51 µM | GI50 (SF-295 CNS) 1.41 µM | GI50 (SF-539 CNS) 9.08 µM | GI50 (SK-MEL-2 melanoma) 4.04 µM | GI50 (SK-MEL-28 melanoma) 19.8 µM | GI50 (SK-MEL-5 melanoma) 1.17 µM | GI50 (SK-OV-3 ovarian) 10.6 µM | GI50 (SN12C renal) > 100 µM | GI50 (SNB-19 CNS) 41.3 µM | GI50 (SNB-75 CNS) 3.9 µM | GI50 (SR leukemia) 1.03 µM | GI50 (SW-620 colon) 31.2 µM | GI50 (T-47D breast) 2.65 µM | GI50 (TK-10 renal) 2.39 µM | GI50 (U251 CNS) 4.82 µM | GI50 (UACC-257 melanoma) 20.4 µM | GI50 (UACC-62 melanoma) 57.4 µM | GI50 (UO-31 renal) 2.69 µM
23.3 µM: TGI (SF-295 CNS)
78.1 µM: TGI (A549 NSCLC)
28.1 µM: TGI (BT-549 breast) | TGI (HOP-62 NSCLC)
27.7 µM: TGI (786-0 renal)
active: GI50 (HOP-92 NSCLC) 0.0316 µM
21.9 µM: TGI (COLO 205 colon)
18.6 µM: TGI (PC-3 prostate)

CCOCC1(COCC)CCC(c2[nH]ncc2CN(C)CCNC)CC1
inactive: GI50 (786-0 renal) > 100 µM | GI50 (A498 renal) 8.25 µM | GI50 (A549 NSCLC) > 100 µM | GI50 (ACHN renal) > 100 µM | GI50 (BT-549 breast) > 100 µM | GI50 (CAKI-1 renal) > 100 µM | GI50 (CCRF-CEM leukemia) > 100 µM | GI50 (COLO 205 colon) > 100 µM | GI50 (DU-145 prostate) > 100 µM | GI50 (EKVX NSCLC) > 100 µM | GI50 (HCC-2998 colon) > 100 µM | GI50 (HCT-116 colon) > 100 µM | GI50 (HCT-15 colon) > 100 µM | GI50 (HL-60(TB) leukemia) > 100 µM | GI50 (HOP-62 NSCLC) > 100 µM | GI50 (HS 578T breast) > 100 µM | GI50 (HT29 colon) 33.3 µM | GI50 (IGROV1 ovarian) > 100 µM | GI50 (K-562 leukemia) 28.8 µM | GI50 (KM12 colon) > 100 µM | GI50 (LOX IMVI melanoma) > 100 µM | GI50 (M14 melanoma) > 100 µM | GI50 (MALME-3M melanoma) > 100 µM | GI50 (MCF7 breast) > 100 µM | GI50 (MDA-MB-231 breast) > 100 µM | GI50 (MDA-MB-435) > 100 µM | GI50 (MOLT-4 leukemia) > 100 µM | GI50 (NCI-H226 lung) > 100 µM | GI50 (NCI-H23 lung) > 100 µM | GI50 (NCI-H460 lung) > 100 µM | GI50 (NCI-H522 lung) > 100 µM | GI50 (NCI/ADR-RES ovarian) > 100 µM | GI50 (OVCAR-3 ovarian) > 100 µM | GI50 (OVCAR-4 ovarian) > 100 µM | GI50 (OVCAR-5 ovarian) > 100 µM | GI50 (OVCAR-8 ovarian) > 100 µM | GI50 (PC-3 prostate) 59.4 µM | GI50 (RPMI-8226 leukemia) 19.8 µM | GI50 (RXF 393 renal) 65.2 µM | GI50 (SF-268 CNS) > 100 µM | GI50 (SF-295 CNS) > 100 µM | GI50 (SF-539 CNS) > 100 µM | GI50 (SK-MEL-2 melanoma) > 100 µM | GI50 (SK-MEL-28 melanoma) > 100 µM | GI50 (SK-MEL-5 melanoma) > 100 µM | GI50 (SK-OV-3 ovarian) > 100 µM | GI50 (SN12C renal) > 100 µM | GI50 (SNB-19 CNS) > 100 µM | GI50 (SNB-75 CNS) 41.4 µM | GI50 (SR leukemia) 23.7 µM | GI50 (SW-620 colon) > 100 µM | GI50 (T-47D breast) > 100 µM | GI50 (TK-10 renal) > 100 µM | GI50 (U251 CNS) > 100 µM | GI50 (UACC-257 melanoma) > 100 µM | GI50 (UACC-62 melanoma) > 100 µM | GI50 (UO-31 renal) > 100 µM
> 100 µM: TGI (786-0 renal) | TGI (A498 renal) | TGI (A549 NSCLC) | TGI (ACHN renal) | TGI (BT-549 breast) | TGI (CAKI-1 renal) | TGI (CCRF-CEM leukemia) | TGI (COLO 205 colon) | TGI (DU-145 prostate) | TGI (EKVX NSCLC) | TGI (HCC-2998 colon) | TGI (HCT-116 colon) | TGI (HCT-15 colon) | TGI (HL-60(TB) leukemia) | TGI (HOP-62 NSCLC) | TGI (HS 578T breast) | TGI (HT29 colon) | TGI (IGROV1 ovarian) | TGI (K-562 leukemia) | TGI (KM12 colon) | TGI (LOX IMVI melanoma) | TGI (M14 melanoma) | TGI (MALME-3M melanoma) | TGI (MCF7 breast) | TGI (MDA-MB-231 breast) | TGI (MDA-MB-435) | TGI (MOLT-4 leukemia) | TGI (NCI-H226 lung) | TGI (NCI-H23 lung) | TGI (NCI-H460 lung) | TGI (NCI-H522 lung) | TGI (NCI/ADR-RES ovarian) | TGI (OVCAR-3 ovarian) | TGI (OVCAR-4 ovarian) | TGI (OVCAR-5 ovarian) | TGI (OVCAR-8 ovarian) | TGI (PC-3 prostate) | TGI (RPMI-8226 leukemia) | TGI (RXF 393 renal) | TGI (SF-268 CNS) | TGI (SF-295 CNS) | TGI (SF-539 CNS) | TGI (SK-MEL-2 melanoma) | TGI (SK-MEL-28 melanoma) | TGI (SK-MEL-5 melanoma) | TGI (SK-OV-3 ovarian) | TGI (SN12C renal) | TGI (SNB-19 CNS) | TGI (SNB-75 CNS) | TGI (SR leukemia) | TGI (SW-620 colon) | TGI (T-47D breast) | TGI (TK-10 renal) | TGI (U251 CNS) | TGI (UACC-257 melanoma) | TGI (UACC-62 melanoma) | TGI (UO-31 renal)
